Assays:
[1] = Solubility analysis: aqueous solubility in buffer at physiological pH; type: physicochemical; conditions: 25-30° C.
Procedure: Solubility analysis: Method for determining aqueous solubility at different physiological pH at 25-30° C. temperature: To accurately weighed amount of test substance, particular buffer solution was added in portion (about 50 microliter portions) at 25-30° C. temperature till solid is completely dissolved and clear solution is obtained.

[2] = rats, intravenous route; cited from earlier work
[3] = Pharmacokinetic (PK) study in Sprague Dawley rats, oral dose; type: in vivo; conditions: rat
Procedure: Method for pharmacokinetic (PK) study in Sprague Dawley rats: Pharmacokinetic study was conducted on male Sprague Dawley rats weighing 200-220 g fasted overnight. (2′S,5S)-9-fluoro-6,7-dihydro-8-(4-L-alaninyloxy-piperidin-1-yl)-5-methyl-1-oxo-1H,5H-benzo[i,j]-quinolizine-2-carboxylic acid methanesulfonic acid salt (A), (2′S,5S)-9-fluoro-6,7-dihydro-8-(4-L-alaninyloxy-piperidin-1-yl)-5-methyl-1-oxo-1H,5H-benzo[i,j]quinolizine-2-carboxylic acid hydrochloride salt (B) and (2′S,5S)-9-fluoro-6,7-dihydro-8-(4-L-valinyloxy-piperidin-1-yl)-5-methyl-1-oxo-1H,5H-benzo[i,j]quinolizine-2-carboxylic acid methanesulfonic acid salt (C) were dissolved in Milli Q water. Compounds A, B and C were administered at the dose of 50 mg/kg orally calculated on the basis of active ingredient. (5S)-9-fluoro -6,7-dihydro-8-(4-hydroxy-piperidin-1-yl)-5-methyl-1-oxo-1H,5H-benzo[i,j]quinolizine-2-carboxylic acid L-arginine salt (D) was dissolved in 1% Tween prior to use. Compounds A and D were administered at the dose of 200 mg/kg orally calculated on the basis of active ingredient. Dose volume was 0.5 ml/200g. Blood samples were collected at predetermined time intervals i.e. 0, 0.5, 1, 2, 4, 6 & 8 h in eppendorff vials containing 10 μl saturated solution of sodium fluoride. Plasma was collected after centrifugation of blood sample at 10000 rpm for 10 min. Plasma samples were analyzed on HPLC for determining drug levels. PK parameters AUC, Cmax were calculated by non-compartmental analysis by using Winnonlin software.

[4] = repeated intravenous administration, injectable form; cited from earlier work
[5] = Oral bioavailability in animals; type: in vivo
[6] = over the pH range 8.0-9.5 at 28° C.; cited from earlier work
[7] = as compared to B, 50 mg/kg per os dose
[8] = as compared to D, 200 mg/kg per os dose
[9] = as compared to D, 50 mg/kg per os dose

## C[C@H](N)C(=O)OC1CCN(c2c(F)cc3c(=O)c(C(=O)O)cn4c3c2CC[C@@H]4C)CC1.Cl
[1]
  Solubility (mg/ml) at pH 7: 4 mg/ml

## CC(C)[C@H](N)C(=O)OC1CCN(c2c(F)cc3c(=O)c(C(=O)O)cn4c3c2CC[C@@H]4C)CC1.CS(=O)(=O)O
[1]
  Solubility (mg/ml) at pH 7: >200 mg/ml

## CC(C)[C@H](N)C(=O)OC1CCN(c2c(F)cc3c(=O)c(C(=O)O)cn4c3c2CC[C@@H]4C)CC1 [(2′S,5S)-9-fluoro-6,7-dihydro-8-(4-L-valinyloxy-piperidin-1-yl)-5-methyl-1-oxo-1H,5H-benzo[i,j]quinolizine-2-carboxylic acid, reference compound]
[1]
  Solubility (mg/ml) at pH 7: <1 mg/ml

## C[C@H]1CCc2c(N3CCC(O)CC3)c(F)cc3c(=O)c(C(=O)O)cn1c23.N=C(N)NCCC[C@H](N)C(=O)O [(5S)-9-fluoro-6,7-dihydro-8-(4-hydroxy-piperidin-1-yl)-5-methyl-1-oxo-1H,5H-benzo[i,j]quinolizine-2-carboxylic acid L-arginine salt]
[2]
  propensity to cause phlebitis: lower propensity to cause phlebitis

## CS(=O)(=O)O.C[C@H](N)C(=O)OC1CCN(c2c(F)cc3c(=O)c(C(=O)O)cn4c3c2CC[C@@H]4C)CC1 [A, (2′S,5S)-9-fluoro-6,7-dihydro-8-(4-L-alaninyloxy-piperidin-1-yl)-5-methyl-1-oxo-1H,5H-benzo[i,j]-quinolizine-2-carboxylic acid methanesulfonic acid salt]
[1]
  Solubility (mg/ml) at pH 7: >200 mg/ml
[3]; [7]
  % Increase in AUC: 175%
  % Increase in Cmax: 300%
[3]; [8]
  % Increase in AUC: 120%
  % Increase in Cmax: 200%

## CC(C)[C@H](N)C(=O)OC1CCN(c2c(F)cc3c(=O)c(C(=O)O)cn4c3c2CC[C@@H]4C)CC1.CS(=O)(=O)O [C, (2′S,5S)-9-fluoro-6,7-dihydro-8-(4-L-valinyloxy-piperidin-1-yl)-5-methyl-1-oxo-1H,5H-benzo[i,j]quinolizine-2-carboxylic acid methanesulfonic acid salt]
[3]; [9]
  % Increase in AUC: 92%
  % Increase in Cmax: 97%

## C[C@H]1CCc2c(N3CCC(O)CC3)c(F)cc3c(=O)c(C(=O)O)cn1c23.N=C(N)NCCC[C@H](N)C(=O)O.O.O.O.O [S-(−)-9-fluoro-6,7-dihydro-8-(4-hydroxypiperidin-1-yl)-5-methyl-1-oxo-1H,5H-benzo[i,j]quinolizine-2-carboxylic acid L-arginine salt tetrahydrate]
[4]
  venous inflammation: not causing venous inflammation
[5]
  oral bioavailability: poor

## C[C@H]1CCc2c(N3CCC(O)CC3)c(F)cc3c(=O)c(C(=O)[O-])cn1c23.[Na+] [S-(−)-9-fluoro-6,7-dihydro-8-(4-hydroxypiperidin-1-yl)-5-methyl-1-oxo-1H,5H-benzo[i,j]quinolizine-2-carboxylic acid sodium salt]
[2]
  propensity to cause phlebitis: high propensity to cause phlebitis

## S-(−)-9-fluoro-6,7-dihydro-8-(4-hydroxypiperidin-1-yl)-5-methyl-1-oxo-1H,5H-benzo[i,j]quinolizine-2-carboxylic acid
[6]
  aqueous solubility: 800 to 2000 µg/mL
[5]
  oral bioavailability: poor
[1]
  Solubility (mg/ml) at pH 7: <1 mg/ml

From US7868173B2, “Prodrugs of benzoquinolizine-2-carboxylic acid” (Wockhardt Limited, priority 2006, dated 2011)
